The results in this text go back to ChEMBL document CHEMBL1136896, “Synthesis and biological evaluation of arylhydrazinocyanoacrylates and N-aryl pyrazolecarboxylates” (2009).

Holding throughout (format): functional
The subject of assay [1] is Bel-7402. The assay can be described thus: Antitumor activity against human Bel7402 cells at 10 uM/L after 72 hrs by MTT assay. The settings on record: Bel-7402, 72 h. A general note: Tetrazolium dyes change colour on reduction, which living cells bring about.
The subject of assay [2] is Medicago sativa. As to the kind of experiment: Herbicidal activity against Medicago sativa at 1.5 kg/hectare administered postemergence of first true leaf measured after 10 days. The settings on record: post-emergence, 240 h.
The subject of assay [3] is Amaranthus retroflexus. As to the kind of experiment: Herbicidal activity against Amaranthus retroflexus at 1.5 kg/hectare administered postemergence of first true leaf measured after 10 days. The note with it: post-emergence, 240 h.
In assay [4] the test system is HL-60. The assay can be described thus: Antitumor activity against human HL60 cells at 100 uM/L after 72 hrs by MTT assay. The note with it: HL-60, 72 h.
Assay [5] concerns Brassica napus. As to the kind of experiment: Herbicidal activity against Brassica napus at 1.5 kg/hectare administered postemergence of first true leaf measured after 10 days. The settings on record: post-emergence, 240 h.
Assay [6] has as its system Bel-7402. The assay can be described thus: Antitumor activity against human Bel7402 cells at 1 uM/L after 72 hrs by MTT assay. The note with it: Bel-7402, 72 h.
The test system of the next assay is Mycosphaerella arachidis. The assay can be described thus: Fungicidal activity against Cercospora arachidicola assessed as inhibition of mycelium growth at 50 mg/L after 72 hrs.
The subject of assay [7] is Amaranthus retroflexus. The assay can be described thus: Herbicidal activity against Amaranthus retroflexus at 1.5 kg/hectare administered preemergence of first true leaf measured after 10 days. The settings on record: pre-emergence, 240 h.
Another assay deals with Alternaria solani. As to the kind of experiment: Fungicidal activity against Alternaria solani assessed as inhibition of mycelium growth at 50 mg/L after 72 hrs.
Assay [8] has as its system Digitaria sanguinalis. The assay can be described thus: Herbicidal activity against Digitaria sanguinalis (L.) Scop. at 1.5 kg/hectare administered preemergence of first true leaf measured after 10 days. The note with it: pre-emergence, 240 h.
In assay [9] the test system is HL-60. As to the kind of experiment: Antitumor activity against human HL60 cells at 1000 uM/L after 72 hrs by MTT assay. The note with it: HL-60, 72 h.
Assay [10] concerns HL-60. As to the kind of experiment: Antitumor activity against human HL60 cells at 1 uM/L after 72 hrs by MTT assay. The note with it: HL-60, 72 h.
Assay [11] deals with Botryosphaeria berengeriana. The assay can be described thus: Fungicidal activity against Physalospora pyricola assessed as inhibition of mycelium growth at 50 mg/L after 72 hrs.
The subject of assay [12] is Medicago sativa. The assay can be described thus: Herbicidal activity against Medicago sativa at 1.5 kg/hectare administered preemergence of first true leaf measured after 10 days. The settings on record: pre-emergence, 240 h.
In assay [13] the test system is HL-60. The assay can be described thus: Antitumor activity against human HL60 cells at 10 uM/L after 72 hrs by MTT assay. The note with it: HL-60, 72 h.
The subject of another assay is Fusarium graminearum. The assay can be described thus: Fungicidal activity against Gibberella zeae assessed as inhibition of mycelium growth at 50 mg/L after 72 hrs.
Assay [14] deals with Bel-7402. As to the kind of experiment: Antitumor activity against human Bel7402 cells at 1000 uM/L after 72 hrs by MTT assay. The note with it: Bel-7402, 72 h.
For assay [15], the system named is Brassica napus. The assay can be described thus: Herbicidal activity against Brassica napus L. at 1.5 kg/hectare administered preemergence of first true leaf measured after 10 days. The settings on record: pre-emergence, 240 h.
Assay [16] relates to Bel-7402. As to the kind of experiment: Antitumor activity against human Bel7402 cells at 100 uM/L after 72 hrs by MTT assay. The note with it: Bel-7402, 72 h.
The subject of the next assay is Cladosporium cucumerinum. As to the kind of experiment: Fungicidal activity against Cladosporium cucumerinum assessed as inhibition of mycelium growth at 50 mg/L after 72 hrs.
For assay [17], the system named is Digitaria sanguinalis. The assay can be described thus: Herbicidal activity against Digitaria sanguinalis at 1.5 kg/hectare administered postemergence of first true leaf measured after 10 days. The settings on record: post-emergence, 240 h.
In a further assay the test system is Cucumis sativus. As to the kind of experiment: Growth regulatory activity in cucumber assessed as root growth at 10 mg/L incubated in dark for 5 days.

The structures appear in SMILES notation.

Take `CCOCCOC(=O)/C(C#N)=C(/CC)NNc1c(Cl)cccc1Cl`: the inhibition (commonly the share of the control response that was lost under treatment) at 10 µM worked out at 17.1% in the assay with Bel-7402 [1] and 35.9% in the assay on HL-60 [13]. In addition, the inhibition at 1500 g/ha in the assay with Medicago sativa [2] was determined as 2.3%; in the assay on Amaranthus retroflexus [3], 22.7%; in the assay with Brassica napus [5], 11.1%; in the assay on Amaranthus retroflexus [7], 8.8%; in the assay on Digitaria sanguinalis [8], 0%; with Medicago sativa [12], 0%. Also, the inhibition at 1500 g/ha in the assay with Brassica napus [15] was found to be 5.3%; with Digitaria sanguinalis [17] it was 0%. For the same molecule, the results for the inhibition at 100 µM with HL-60 [4] and in the assay on Bel-7402 [16] were 72.4% and 54.6%, respectively. Further, the inhibition at 1 µM with Bel-7402 [6] is 11.5%; with HL-60 [10], 4.3%. Besides, the inhibition at 50 µg/mL with Mycosphaerella arachidis turned out to be 24.4%; with Alternaria solani it was 10%; in assay [11], 24%; with Fusarium graminearum, 0%; in the assay on Cladosporium cucumerinum, 0%. The inhibition at 1000 µM was 80.4% in the assay with HL-60 [9] and 79.8% in the assay with Bel-7402 [14]. Moreover, in the assay with Cucumis sativus, the Activity is -6%.
As for `CCOCCOC(=O)c1c(SC)nn(-c2ccc(Cl)cc2)c1N`, the inhibition at 1500 g/ha in the assay on Medicago sativa [2], in the assay on Amaranthus retroflexus [3], in the assay with Brassica napus [5], with Amaranthus retroflexus [7], in the assay with Digitaria sanguinalis [8] and in the assay with Medicago sativa [12] was 0% each time. Also, the inhibition at 1500 g/ha with Brassica napus [15] and with Digitaria sanguinalis [17] was 0% each time. In addition, the inhibition at 50 µg/mL in the assay on Mycosphaerella arachidis amounted to 26.5%; in the assay on Alternaria solani, 20%; in [11] it was 36%; with Fusarium graminearum it was 37.8%; with Cladosporium cucumerinum it was 23.6%. Besides, in the assay with Cucumis sativus, the Activity came to 66.6%.
As to `CC1COC(Cn2cncn2)(c2ccc(Oc3ccc(Cl)cc3)cc2Cl)O1` (centres undefined) [DIFENOCONAZOLE], the inhibition at 50 µg/mL (with Mycosphaerella arachidis; in the assay with Alternaria solani; in assay [11]; in the assay on Fusarium graminearum; with Cladosporium cucumerinum) was 100% in each case.
On to `CCOCCOC(=O)c1c(CC)nn(-c2ccccc2)c1N`, for which the inhibition at 1500 g/ha in the assay on Medicago sativa [2] is 0%; with Amaranthus retroflexus [3], 0%; in the assay on Brassica napus [5], 61.5%; in the assay with Amaranthus retroflexus [7] it was 0%; in the assay with Digitaria sanguinalis [8] it was 0%; in the assay on Medicago sativa [12] it was 0%. Also, the inhibition at 1500 g/ha with Brassica napus [15] and in the assay with Digitaria sanguinalis [17] was 0% in each case. The inhibition at 50 µg/mL in the assay on Mycosphaerella arachidis was 35.3%; with Alternaria solani, 20%; in [11], 1.3%; in the assay on Fusarium graminearum it was 46.7%; in the assay with Cladosporium cucumerinum it was 18.2%. Moreover, in the assay with Cucumis sativus, the Activity is on record as 46.3%.
As for `CCOCCOC(=O)c1c(CC)nn(-c2ccc(Cl)cc2)c1N`, the inhibition at 1500 g/ha with Medicago sativa [2], in the assay with Amaranthus retroflexus [3], with Brassica napus [5], with Amaranthus retroflexus [7], in the assay on Digitaria sanguinalis [8] and in the assay on Medicago sativa [12] was 0% in each case. The inhibition at 1500 g/ha in the assay on Brassica napus [15] and in the assay on Digitaria sanguinalis [17] was 0% throughout. Also, the inhibition at 50 µg/mL is 41.2% in the assay with Mycosphaerella arachidis; 0% with Alternaria solani; 38.7% in [11]; 53.3% with Fusarium graminearum; 14.5% with Cladosporium cucumerinum. Further, in the assay with Cucumis sativus, the Activity is reported as 111.3%.
For `CCOCCOC(=O)c1c(C(C)C)nn(-c2ccc(C)cc2)c1N`, the inhibition at 1500 g/ha with Medicago sativa [2] came out at 20%; in the assay with Amaranthus retroflexus [3], 0%; with Brassica napus [5], 40.7%; with Amaranthus retroflexus [7] it was 0%; with Digitaria sanguinalis [8], 0%; with Medicago sativa [12] it was 0%. Besides, the inhibition at 1500 g/ha with Brassica napus [15] was found to be 15%; in the assay with Digitaria sanguinalis [17], 0%. The inhibition at 50 µg/mL in the assay with Mycosphaerella arachidis is 20.6%; in the assay on Alternaria solani it was 12%; in assay [11], 13.3%; in the assay on Fusarium graminearum, 51.1%; with Cladosporium cucumerinum, 40%. For the same molecule, the Activity in the assay with Cucumis sativus is recorded as 21.9%.
Turning to `CCOCCOC(=O)c1c(SC)nn(-c2ccc(C)cc2)c1N`, the inhibition at 1500 g/ha came out at 0% in the assay with Medicago sativa [2]; 38% with Amaranthus retroflexus [3]; 52.7% in the assay on Brassica napus [5]; 0% with Amaranthus retroflexus [7]; 0% in the assay on Digitaria sanguinalis [8]; 0% in the assay on Medicago sativa [12]. Also, the inhibition at 1500 g/ha with Brassica napus [15] was 10%; in the assay with Digitaria sanguinalis [17], 0%. Besides, the inhibition at 50 µg/mL was found to be 35.3% in the assay with Mycosphaerella arachidis; 28% in the assay with Alternaria solani; 22.7% in assay [11]; 46.7% in the assay with Fusarium graminearum; 20% in the assay on Cladosporium cucumerinum. The Activity with Cucumis sativus was 66.6%.
In the case of `CCOCCOC(=O)/C(C#N)=C(\NCc1ccc(Cl)nc1)SC`, the inhibition at 1500 g/ha in the assay with Medicago sativa [2] came out at 55.3%; with Amaranthus retroflexus [3], 100%; in the assay on Brassica napus [5], 100%; in the assay on Amaranthus retroflexus [7] it was 32.4%; with Digitaria sanguinalis [8] it was 18.8%; with Medicago sativa [12], 3.6%. In addition, the inhibition at 1500 g/ha in the assay with Brassica napus [15] was 47.6%; with Digitaria sanguinalis [17], 54.1%.
Consider `CCOCCOC(=O)c1c(C(C)C)nn(-c2ccccc2)c1N`, for which the inhibition at 1500 g/ha amounted to 0% in the assay on Medicago sativa [2]; 0% in the assay with Amaranthus retroflexus [3]; 58.8% in the assay on Brassica napus [5]; 0% in the assay on Amaranthus retroflexus [7]; 0% in the assay on Digitaria sanguinalis [8]; 0% in the assay on Medicago sativa [12]. Moreover, the results for the inhibition at 1500 g/ha in the assay on Brassica napus [15] and in the assay on Digitaria sanguinalis [17] were 15% and 0%, respectively. Further, the inhibition at 50 µg/mL in the assay with Mycosphaerella arachidis amounted to 20.6%; in the assay with Alternaria solani, 32%; in [11] it was 32%; in the assay on Fusarium graminearum, 46.7%; with Cladosporium cucumerinum, 1.8%. In addition, in the assay with Cucumis sativus, the Activity turned out to be 46.3%.
`O=C(O)Cc1c[nH]c2ccccc12` [INDOLE-3-ACETIC ACID]: the Activity with Cucumis sativus was greater than 150%.
Take `CCOCCOC(=O)c1c(C(C)C)nn(-c2ccc(Cl)cc2)c1N`: the inhibition at 1500 g/ha with Medicago sativa [2] is 0%; with Amaranthus retroflexus [3], 0%; with Brassica napus [5], 26.4%; in the assay with Amaranthus retroflexus [7], 0%; in the assay on Digitaria sanguinalis [8], 0%; in the assay with Medicago sativa [12], 0%. Moreover, the inhibition at 1500 g/ha in the assay with Brassica napus [15] turned out to be 40%; with Digitaria sanguinalis [17], 0%. In addition, the inhibition at 50 µg/mL amounted to 23.5% in the assay on Mycosphaerella arachidis; 0% with Alternaria solani; 33.3% in [11]; 44.4% with Fusarium graminearum; 23.6% with Cladosporium cucumerinum. For the same molecule, in the assay with Cucumis sativus, the Activity turned out to be 38.2%.
